The values below come from patent US10189818B2, “5-(5-(2-(3-aminopropdoxy)-6-methoxyphenyl)-1H-pyrazol-3-ylamino)pyrazine-2-carbonitfile (S)-lactate monohydrate” (priority 2015, dated 2019).

Structures are written as SMILES.

A short description of data set [1]: Stability comparison of the salt forms (Table 2). It is filed as physicochemical. The note with it: salt form comparison.
A short description of data set [2]: Pharmacokinetic comparison after 1-hour IV infusion, plasma concentrations by LC-MS/MS. It is filed as in vivo, male Sprague-Dawley rats. The note with it: rat; for concentration at 0.25 h / concentration at 0.5 h / concentration at 1 h / concentration at 1.25 h / concentration at 1.5 h / concentration at 2 h / concentration at 4 h / concentration at 8 h / concentration at 24 h: male, Sprague-Dawley, single 10 mg/kg 1-hour intravenous infusion; for concentration at 0.25 h: 0.25 hours after start of infusion; for concentration at 0.5 h: 0.5 hours after start of infusion; for concentration at 1 h: 1 hour after start of infusion; for concentration at 1.25 h: 1.25 hours after start of infusion; for concentration at 1.5 h: 1.5 hours after start of infusion; for concentration at 2 h: 2 hours after start of infusion; for concentration at 4 h: 4 hours after start of infusion; for concentration at 8 h: 8 hours after start of infusion; for concentration at 24 h: 24 hours after start of infusion; for Difference in blood plasma levels between the two salt forms (2 sample t-test, pooled error): 10 mg/kg IV infusion for 1 hour, mesylate formulated in Captisol, (S)-lactate in trehalose. Here is the method:
Evaluate the noncompartmental pharmacokinetic parameters of the methanesulfonic acid monohydrate and (S)-lactate monohydrate salts of 5-(5-(2-(3-aminopropoxy)-6-methoxyphenyl)-1H-pyrazol-3-ylamino)pyrazine-2-carbonitrile after intravenous (IV) infusion of 10 mg/kg of the methanesulfonic acid monohydrate salt (10 mg/kg, formulated in Captisol®) or of the (S)-lactate monohydrate salt (formulated in trehalose) into the femoral vein cannula of fed male Sprague-Dawley rats for 1 hour. Collect blood samples over 24 hours from 6 animals/group. Collect blood samples into tubes containing K3EDTA at 0.25, 0.5, 1, 1.25, 1.5, 2, 4, 8, and 24 hours after the start of infusion. Centrifuge the samples to obtain plasma, and freeze until analyzed. Determine plasma concentrations using a validated LC-MS/MS assay.
Dispense WFI equivalent to approximately 80% of the final batch volume. Warm the WFI to 40° C.±3° C. and transfer to the manufacturing vessel. Weigh the required amount of active pharmaceutical ingredient and after ensuring that the WFI temperature is still within the specified range, quantitatively transfer the active pharmaceutical ingredient into the manufacturing vessel while stirring. Stir until the active pharmaceutical ingredient has dissolved yielding a clear yellow solution, stirring for no longer than 30 minutes. Add trehalose and polysorbate 80 to the manufacturing vessel. Stir until dissolved. Measure the pH of the solution and adjust to pH 4.4±0.3 with lactic acid (Note: If using lactic acid 88%-92% solution, titrate slowly and cautiously as small quantities can produce large changes in pH, or prepare a 10% solution of lactic acid for pH adjustment). If necessary, and only if the pH drops below the lower limit during adjustment, add 10% NaOH solution to bring the pH back into range. Add WFI to the manufacturing vessel to bring the solution to the final batch weight which is calculated based on the desired batch volume and the density of the solution. Measure the pH of the solution and adjust, if necessary, to pH 4.4±0.3 with lactic acid or 10% NaOH. The solution is filtered through a sterile 0.22 micron PVDF membrane (Millipore Durapore®) into a sterile receiving vessel. Fill the drug product into sterile vials. Upon completion of filling, stopper and seal vials. If not dosed within about 4 hours, store all vials at −20° C.
Dispense WFI equivalent to approximately 80% of the final batch volume into the manufacturing vessel. Weigh the required amount of Captisol® and transfer to the manufacturing vessel. Stir until dissolved. Weigh the required amount of active pharmaceutical ingredient and form a slurry by adding WFI to the active pharmaceutical ingredient with swirling until wetted. Transfer the slurry to the stirring Captisol® solution. Rinse the active pharmaceutical ingredient with WFI (3×) and add the rinses to the stirring bulk solution. Stir until the active pharmaceutical ingredient has been dispersed. Stir for no longer than 60 minutes. Some particles may be visible in the manufacturing vessel after stirring for 60 minutes. Maintain the pH of the solution between 4.0-6.0. If the pH drops below the lower limit, 10% NaOH solution may be added to bring the pH into range. Add WFI to the manufacturing vessel to bring the solution to the final batch weight which is calculated based on the desired batch volume and the density of the solution. Measure the pH of the solution and adjust, if necessary, to pH 4.0-6.0 with 10% NaOH. Filter the solution through a sterile 0.22 micron PVDF membrane (Millipore Durapore®) into a sterile receiving vessel. Fill the drug product into sterile vials. Upon completion of filling, stopper and seal the vials. If not dosed within about 4 hours, store all vials at −20° C.

Data set [3] can be described thus: Solubility screen of the salts in aqueous acid solution, HPLC. It is filed as physicochemical. The note with it: thermodynamic from solid, room temperature, one week. How it is done: Prepare an aqueous solution (approximately 0.1 M) of selected acid. Add solid 5-(5-(2-(3-aminopropoxy)-6-methoxyphenyl)-1H-pyrazol-3-ylamino)pyrazine-2-carbonitrile (20-26 mg). Agitate slurry at room temperature for one week. Measure the 5-(5-(2-(3-aminopropoxy)-6-methoxyphenyl)-1H-pyrazol-3-ylamino)pyrazine-2-carbonitrile concentration by HPLC. Aliquots (˜200 μL) are withdrawn from the suspensions through 0.45 micron Millex® PTFE filters. Dilute samples with mobile phase and analyze by HPLC. Analyze the samples with an Agilent 1100 HPLC (Instrument 800) with a Zorbax Bonus RP (75 mm×4.6 mm, 3.5 micron particle size) column, or equivalent. The mobile phase consists of 20% of a 0.1% TFA in acetonitrile mixture and 80% of a 0.1% TFA in water mixture. Instrument conditions are as follows: flow rate 1.0 mL/minute, wavelength of detection 290 nm, 3 μL injection volume, 10 minute run time, and column temperature of 30° C. Prepare a stock solution of 5-(5-(2-(3-aminopropoxy)-6-methoxyphenyl)-1H-pyrazol-3-ylamino)pyrazine-2-carbonitrile in 50/50 water/acetonitrile and dilute with 50/50 water/acetonitrile to give concentrations suitable for quantification of the solubility samples. Dilute the samples with 50/50 acetonitrile/water. Use a dilution factor of 200 for the samples. Measure the pH of each solution and analyze the solid residues by microscopy and XRPD (wet and dry) for crystallinity and crystal form.
Prepare a (S)-lactic acid aqueous solution (0.104 M, 1 mL). Add solid 5-(5-(2-(3-aminopropoxy)-6-methoxyphenyl)-1H-pyrazol-3-ylamino)pyrazine-2-carbonitrile (21.7 mg, 0.059 mmol). Agitate the slurry at room temperature for one week. Measure the 5-(5-(2-(3-aminopropoxy)-6-methoxyphenyl)-1H-pyrazol-3-ylamino)pyrazine-2-carbonitrile concentration by HPLC. Withdraw an aliquot (˜200 μL) from the suspension through 0.45 micron Millex® PTFE filters. Dilute the samples with mobile phase and analyze by HPLC. Analyze the samples with an Agilent 1100 HPLC (Instrument 800) with a Zorbax Bonus RP (75 mm×4.6 mm, 3.5 micron particle size) column, or equivalent. The mobile phase consists of 20% of a 0.1% TFA in acetonitrile mixture and 80% of a 0.1% TFA in water mixture. Instrument conditions are as follows: flow rate 1.0 mL/minute, wavelength of detection 290 nm, 3 μL injection volume, 10 minute run time, and column temperature of 30° C. Prepare a stock solution of 5-(5-(2-(3-aminopropoxy)-6-methoxyphenyl)-1H-pyrazol-3-ylamino)pyrazine-2-carbonitrile in 50/50 water/acetonitrile and dilute with 50/50 water/acetonitrile to give concentrations suitable for quantification of the solubility samples. Dilute the samples with 50/50 acetonitrile/water. Use a dilution factor of 200 for the samples. […]

Setting [4] is: aqueous buffer, water solubility comparison, slurry in approx. 0.1 M aqueous acid.

Broadly, the solubility is the concentration that dissolves in the medium under given conditions. Consider `COc1cccc(OCCCN)c1-c1cc(Nc2cnc(C#N)cn2)n[nH]1.C[C@H](O)C(=O)O` [(S)-Lactate Monohydrate, 5-(5-(2-(3-Aminopropoxy)-6-methoxyphenyl)-1H-pyrazol-3-ylamino)pyrazine-2-carbonitrile (S)-lactate Monohydrate], for which the Stability result in data set [1] is reported as “Satisfactory”. In data set [2] (plasma), this compound came in with a concentration at 0.25 h of 1110 ng/mL, a concentration at 0.5 h of 1180 ng/mL, a concentration at 1 h of 1140 ng/mL and a concentration at 1.25 h of 405 ng/mL. Besides, in data set [2] (plasma), the concentration at 1.5 h was 283 ng/mL, the concentration at 2 h worked out at 217 ng/mL, the concentration at 4 h is 73.8 ng/mL and the concentration at 8 h was 28.6 ng/mL. This compound had a concentration at 24 h in data set [2] (plasma) of 2.6 ng/mL. Besides, the “Difference in blood plasma levels between the two salt forms (2 sample t-test, pooled error)” value in data set [2] is recorded as “no significant difference”. For the same compound, the solubility at 1 week in data set [3] (aqueous (S)-lactic acid solution, pH 2.46, aqueous buffer, in water, measured at a pH of 2.46, 0.104 M (S)-lactic acid) is above 20000 µg/mL. Further, in data set [3] (aqueous solution of the selected acid, aqueous buffer, water solubility comparison, slurry in approx. 0.1 M aqueous acid), the solubility at 1 week is above 20000 µg/mL.
Consider `COc1cccc(OCCCN)c1-c1cc(Nc2cnc(C#N)cn2)n[nH]1.Cl.Cl` [Di-HCl, 5-(5-(2-(3-aminopropoxy)-6-methoxyphenyl)-1H-pyrazol-3-ylamino)pyrazine-2-carbonitrile di-HCl salt], for which, in data set [1], the Stability result is on record as “Unstable”. The solubility at 1 week in data set [3] (setting [4]) amounted to 107 µg/mL.
As to `COc1cccc(OCCCN)c1-c1cc(Nc2cnc(C#N)cn2)n[nH]1.CS(=O)(=O)O.O` [Methanesulfonic acid Monohydrate, 5-(5-(2-(3-aminopropoxy)-6-methoxyphenyl)-1H-pyrazol-3-ylamino)pyrazine-2-carbonitrile methanesulfonic acid monohydrate salt], the Stability entry in data set [1] is “Satisfactory”. For the same compound, in data set [2] (in vivo), the concentration at 0.25 h is 1060 ng/mL, the concentration at 0.5 h came out at 1100 ng/mL, the concentration at 1 h came out at 930 ng/mL and the concentration at 1.25 h worked out at 319 ng/mL. Also, in data set [2] (in vivo), the concentration at 1.5 h was found to be 249 ng/mL, the concentration at 2 h came out at 178 ng/mL, the concentration at 4 h amounted to 67.5 ng/mL and the concentration at 8 h was 30.3 ng/mL. Further, in data set [2] (in vivo), the concentration at 24 h turned out to be 3 ng/mL. The “Difference in blood plasma levels between the two salt forms (2 sample t-test, pooled error)” value in data set [2] was “no significant difference”. Further, the solubility at 1 week in data set [3] (setting [4]) came to 6630 µg/mL.
